Experimental data published in PMC7949145 (The Journal of Biological Chemistry, 2021).
“Also recorded” adds a separate entry of the source. Like-named read-outs stand apart in the source and are kept apart here.

Columns and labels:
Mtr LpqY [1] = target: T1, Mtr LpqY (Mycolicibacterium thermoresistibile, UniProt G7CES0); assay: Thermal shift assay (SYPRO Orange) of potential ligands; type: binding, Mycobacterium thermoresistible; settings: ligand 10 mM; for ΔTm: Mtr LpqY 2.6 μM, shift relative to protein alone (Tm 66.0 °C), no unit in table, °C
T1 sequence (G7CES0 29-471): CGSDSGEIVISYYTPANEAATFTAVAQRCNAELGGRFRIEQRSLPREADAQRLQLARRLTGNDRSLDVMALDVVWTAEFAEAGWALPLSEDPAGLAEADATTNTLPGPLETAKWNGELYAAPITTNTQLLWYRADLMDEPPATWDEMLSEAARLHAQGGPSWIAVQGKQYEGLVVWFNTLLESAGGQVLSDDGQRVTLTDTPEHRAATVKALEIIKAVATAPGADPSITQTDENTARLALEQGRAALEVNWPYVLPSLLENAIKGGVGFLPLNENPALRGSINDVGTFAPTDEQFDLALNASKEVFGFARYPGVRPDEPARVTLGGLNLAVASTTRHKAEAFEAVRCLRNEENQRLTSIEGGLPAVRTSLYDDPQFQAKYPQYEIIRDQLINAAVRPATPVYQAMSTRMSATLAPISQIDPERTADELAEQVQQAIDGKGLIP

Mtr LpqY [2] = target: T1, Mtr LpqY; assay: Microscale thermophoresis (MST), wild-type protein; type: binding, Mycobacterium thermoresistible; settings: for Kd: 21 °C, wild-type Mtr LpqY 500 nM, mean ± SEM, at least three experiments
mycobacteria = system: mycobacteria; set-up: method as in PMID 22978752; settings: cited from earlier work
Mtr LpqY [3] = target: T1, Mtr LpqY; assay: Saturation transfer difference (STD) NMR; type: binding, Mycobacterium thermoresistible; settings: protein 25 μM, ligand 1 mM, PBS D2O pH 7.4, 288 K
Description: However, despite numerous efforts, we were unable to obtain a crystal structure of Mtr LpqY in complex with 6-azido-trehalose. Therefore, to further our understanding into the mode of ligand binding, the binding epitope of 6-azido-trehalose with Mtr LpqY was determined in solution by saturation transfer difference (STD) NMR experiments, as described in the Methods section.
All the STD NMR experiments were performed in PBS D2O buffer, pH 7.4. […] STD NMR spectra were acquired on a Bruker Avance 500.13 MHz at 288 K. The on- and off-resonance spectra were acquired using a train of 50 ms Gaussian selective saturation pulses using a variable saturation time from 0.5 s to 5 s, and a relaxation delay (D1) of 4 s. The water signal was suppressed using the watergate technique ([41]), whereas the residual protein resonances were filtered using a T1ρ-filter of 40 ms. All the spectra were acquired with a spectral width of 8 kHz and 24K data points using 512 scans. The on-resonance spectra were acquired by saturating at 0.80 (aliphatic hydrogens) or 7.20 ppm (aromatic hydrogens), as average chemical shifts predicted from shiftX2 ([42]) for the aliphatic and aromatic residues present in the binding site of Mtr LpqY, whereas the off-resonance spectra were acquired by saturating at 40 ppm. […]

Row | SMILES | Recognition in the thermal shift screen (in words) (Mtr LpqY [1]) | ΔTm (Mtr LpqY [1]) | also measured
1 | [N-]=[N+]=N[C@H]1[C@@H](O[C@H]2O[C@H](CO)[C@@H](O)[C@H](O)[C@H]2O)O[C@H](CO)[C@@H](O)[C@@H]1O [2-azido-2-deoxy-trehalose, 2-azido-2-deoxy-α,α′-trehalose] | only a minor shift | 1.7 ± 0.1 | Kd (Mtr LpqY [2]; read-out: Kd): 1916 ± 7.7 µM; Import into the cytosol of mycobacteria (mycobacteria): imported and found in the cytosol
2 | OC[C@H]1O[C@H](O[C@H]2[C@H](O)[C@@H](CO)OC(O)[C@@H]2O)[C@H](O)[C@@H](O)[C@@H]1O (stereo partly shown) [Nigerose] | reduced ΔTm shifts | 5.1 ± 0.1 | 
3 | [N-]=[N+]=N[C@@H]1[C@@H](O)[C@@H](O[C@H]2O[C@H](CO)[C@@H](O)[C@H](O)[C@H]2O)O[C@H](CO)[C@H]1O [3-azido-3-deoxy-trehalose] |  | 6.7 ± 0.2 | Kd (Mtr LpqY [2]; read-out: Kd): 475 ± 17.2 µM; Import into the cytosol of mycobacteria (mycobacteria): is not
4 | OC[C@H]1O[C@H](O[C@H]2C(O)O[C@H](CO)[C@@H](O)[C@@H]2O)[C@H](O)[C@@H](O)[C@@H]1O (stereo partly shown) [Kojibiose] | reduced ΔTm shifts | 7.9 ± 0.2 | Fold reduction in binding affinity (increase in Kd) compared with trehalose (Mtr LpqY [2]): ~30 fold; Kd (Mtr LpqY [2]; read-out: Kd): 2350 ± 123 µM
5 | OC[C@H]1OC(O)[C@H](O)[C@@H](O)[C@@H]1O (stereo partly shown) [glucose] | no influence on the ΔTm |  | 
6 | OC[C@H]1O[C@@H](O[C@H]2O[C@H](CO)[C@@H](O)[C@H](O)[C@H]2O)[C@H](O)[C@@H](O)[C@@H]1O [α,β-trehalose] |  | 3.7 ± 0.1 | 
7 | OC[C@H]1O[C@H](O[C@H]2[C@H](O)[C@@H](O)C(O)O[C@@H]2CO)[C@H](O)[C@@H](O)[C@@H]1O (mixture of isomers) [maltose] | reduced ΔTm shifts; also recorded: inability |  | 
8 | OC[C@H]1O[C@H](O[C@H]2O[C@H](CO)[C@@H](O)[C@H](O)[C@H]2O)[C@H](O)[C@@H](O)[C@@H]1O [Trehalose, α-D-glucopyranosyl-α-D-glucopyranoside] |  |  | Binding by STD NMR (Mtr LpqY [3]): Binding was confirmed
9 | OCC1O[C@H](O[C@H]2OC(CO)[C@H](O)[C@H](O)C2O)C(O)[C@@H](O)[C@H]1O (stereo partly drawn) [Galactotrehalose, α-D-galactopyranosyl-(1→1)-α-D-glucopyranoside] |  | 6.1 ± 0.6 | 
10 | O=P(O)(O)OC[C@H]1O[C@H](O[C@H]2O[C@H](CO)[C@@H](O)[C@H](O)[C@H]2O)[C@H](O)[C@@H](O)[C@@H]1O [Trehalose-6-phosphate] |  | 3.7 ± 0.2 | 
11 | OC[C@H]1O[C@H](O[C@H]2O[C@H](CO)[C@@H](O)[C@H](O)[C@H]2O)[C@@H](O)[C@@H](O)[C@@H]1O [Mannotrehalose, α-D-mannopyranosyl-(1→1)-α-D-glucopyranoside] |  | 5.9 ± 0.3 | 
12 | C[N+](C)(C)CCOP(=O)([O-])OC[C@H](O)CO [glycerophosphocholine] | did not observe binding |  | 
13 | [N-]=[N+]=NC[C@H]1O[C@H](O[C@H]2O[C@H](CO)[C@@H](O)[C@H](O)[C@H]2O)[C@H](O)[C@@H](O)[C@@H]1O [6-azido-6-deoxy-trehalose, 6-azido-6-deoxy-α,α′-trehalose] |  |  | Binding by STD NMR (Mtr LpqY [3]): Binding was confirmed; Kd (Mtr LpqY [2]; Kd): 443 ± 5.3 µM; Import into the cytosol of mycobacteria (mycobacteria): imported and found in the cytosol
14 | OC[C@H]1O[C@H](OC[C@H]2OC(O)[C@H](O)[C@@H](O)[C@@H]2O)[C@H](O)[C@@H](O)[C@@H]1O (stereo partly shown) [Isomaltose] | reduced ΔTm shifts | 4.1 ± 0.2 | 
15 | [N-]=[N+]=N[C@H]1[C@H](O)[C@@H](O)[C@@H](O[C@H]2O[C@H](CO)[C@@H](O)[C@H](O)[C@H]2O)O[C@@H]1CO [4-azido-4-deoxy-trehalose, 4-azido-4-deoxy-α,α′-trehalose] | comparable to trehalose | 10.2 ± 0.1 | Kd (Mtr LpqY [2]; read-out: Kd): 247 ± 7.1 µM; Import into the cytosol of mycobacteria (mycobacteria): imported and found in the cytosol
16 | NC[C@H]1O[C@H](O[C@H]2O[C@H](CO)[C@@H](O)[C@H](O)[C@H]2O)[C@H](O)[C@@H](O)[C@@H]1O [6-amino-6-deoxy-trehalose, 6-amino-6-deoxy-α,α′-trehalose] |  | 7.0 ± 0.1 | 
